Measured values published in patent publication US20040261961A1, “Wood treatment solution and process for improving the preservation of wood” (priority 2001, published 2004).
Like-named read-outs stand apart in the source and are kept apart here.

Experiments:
Coniophora puteana = system: Coniophora puteana
Procedure: (§1) The tests were carried out by using test specimens made from spruce or pine wood. The size of specimens made of pine was approx. 20×15×2.4 cm^3 and respectively the size of the specimens made from spruce was approx. 20×12×7.2 cm^3. One half of the wood specimens were subjected to a heat treatment at 190° C. […] One half of the specimens were subjected to no heat treatment. The wood specimens were measured and weighed before the chemical treatment. Neither chemical nor heat treatment was carried out on the reference specimens that were used in the accelerated rotting tests described below.
(§2) The temperature of the solution was 40-50° C. In the vessel there prevailed a pressure of approx. 150 kPa (1.5 bar), by means of which the solution was “forced” into the wood. The treatment time was 2 h. After the chemical treatment the wood specimens were dried in an incubator overnight at 80-90° C.
(§3) In the next phase the specimens treated above were sent to a rot fungus test. European standard EN 113 was applied in carrying out the test. The wood was exposed to conditions as rigorous as possible with respect to decay: temperature was approx. 30° C. and humidity 100%, and bad rot fungi such as Poria placenta, Gloeophyllum trabeum and Coniophora puteana had been introduced into the testing space (culture flask). These fungi are present in all rotting objects. The test lasted for 4 months. […] The rotting of such wood should in an accelerated rotting test be such that the weight loss is at least 20% with each fungus species. The specimens were weighed before the beginning of the test.
(§4) The results of the accelerated rotting tests for spruce are shown in Tables 2-4 and for pine in Tables 5-7.

Gloeophyllum trabeum = system: Gloeophyllum trabeum
Procedure: as §1, §2, §3, §4

Poria placenta = system: Poria placenta
Procedure: as §1, §2, §3, §4

[1] = system: Poria placenta, Gloeophyllum trabeum and Coniophora puteana; conditions: Ca formate treatment in addition to heat treatment
Procedure: as §3, §4

[2] = board kept several days in strong potassium formate solution; buried in garden plot from summer to following summer
Text: A board specimen was kept for several days in a strong potassium formate solution. After impregnation, the board was in summer buried in a garden plot together with untreated board taken from the same board specimen.

rot fungi = conditions: closed and humid space containing rot fungi; potassium formate dissolved in water
Procedure: Next, a test was performed in which a piece of wood was impregnated with potassium formate. This and an untreated wood specimen were placed in a closed and humid space containing rot fungi.

Compound	Rot resistance class according to standard EN 350-1994 (Coniophora puteana; treated pine)	Rot resistance class according to standard EN 350-1994 (Coniophora puteana; treated spruce)	Rot resistance class according to standard EN 350-1994 (Gloeophyllum trabeum; treated pine)	Rot resistance class according to standard EN 350-1994 (Gloeophyllum trabeum; treated spruce)	Rot resistance class according to standard EN 350-1994 (Poria placenta; treated pine)	Rot resistance class according to standard EN 350-1994 (Poria placenta; treated spruce)	Rotting of wood (overall conclusion) [1]	Decay of impregnated board after burial [2]	Decay activity in the experimental space (rot fungi)
O=C[O-].O=C[O-].[Ca+2] [Ca formate, calcium formate]	Class 1	Class 1	Class 1	Class 1	Class 3	Class 3	prevented almost completely	–	–
O=C[O-].[K+] [potassium formate]	–	–	–	–	–	–	–	without any decay	inhibited all decay activity
